Test results as given in patent US4368200A, “Heterocyclic derivatives of (4-phenyl-piperazine-1-yl-aryloxymethyl-1,3-dioxolan-2-yl)-methyl-1H-imi dazoles and 1H-1,2,4-triazoles” (Janssen Pharmaceutica N.V., priority 1981, dated 1983).

Tested on: Candida albicans
Assay: Experiment A: activity against vaginal candidosis in rats
Type: in vivo, Female Wistar rats
Details: po, 336 h, orally once a day for two days starting from the day of infection, active at the 14th day after infection, read-out: Vaginal candidosis in rats: lowest effective dose in mg/kg orally
Procedure: Female Wistar rats of ±100 g body weight are used. They are ovariectomized and hysterectomized and after three weeks of recovery, 100 μg of oestradiol undecylate in sesame oil is given subcutaneously once a week for 3 consecutive weeks. The thus induced pseudo-oestrus is controlled by microscopic examination of vaginal smears. Food and water are left available ad libitum. The rats are infected intravaginally with 8.10^5 cells of Candida albicans, grown on Sabouraud broth for 48 hours at 37° C. and diluted with saline. The data of infection varies from day +25 to day +32 after surgical intervention, depending on the appearance of signs of induced pseudo-oestrus. The drugs under investigation are administered orally once a day for two days starting from the day of infection. For each experiment there are placebo treated controls. The results are assessed by taking vaginal smears with sterile swabs on several days after the infection. The swabs are put into Sabouraud broth in petri-dishes and incubated for 48 hours at 37° C. If no growth of Candida albicans occurs, i.e., when the animals are negative at the end of the experiment, this is due to drug administration because it never happens in placebo-treated controls. The table below gives the lowest oral dose of the drug under investigation which is found active at the 14th day after infection.

| Compound | minimal effective dose [mg/kg] |
| --- | --- |
| Clc1ccc([C@@]2(Cn3ccnc3)OC[C@H](COc3ccc(N4CCN(c5ccc(-n6cccn6)cc5)CC4)cc3)O2)c(Cl)c1 (relative stereo) | 2.5 |
| Clc1ccc([C@@]2(Cn3cncn3)OC[C@H](COc3ccc(N4CCN(c5ccc(-n6cccn6)cc5)CC4)cc3)O2)c(Cl)c1 (relative stereo) | 2.5 |
| Clc1ccc([C@@]2(Cn3ccnc3)OC[C@H](COc3ccc(N4CCN(c5ccc(-n6ccnc6)cc5)CC4)cc3)O2)c(Cl)c1 (relative stereo) | 1.25 |
| Clc1ccc([C@@]2(Cn3cncn3)OC[C@H](COc3ccc(N4CCN(c5ccc(-n6ccnc6)cc5)CC4)cc3)O2)c(Cl)c1 (relative stereo) | 1.25 |
| Clc1ccc([C@@]2(Cn3ccnc3)OC[C@H](COc3ccc(N4CCN(c5ccc(-n6cncn6)cc5)CC4)cc3)O2)c(Cl)c1 (relative stereo) | 0.63 |
| Clc1ccc([C@@]2(Cn3cncn3)OC[C@H](COc3ccc(N4CCN(c5ccc(-n6cncn6)cc5)CC4)cc3)O2)c(Cl)c1 (relative stereo) | 0.63 |
| CSc1ncn(-c2ccc(N3CCN(c4ccc(OC[C@H]5CO[C@](Cn6ccnc6)(c6ccc(Cl)cc6Cl)O5)cc4)CC3)cc2)n1 (relative stereo) | 2.5 |
| CSc1ncn(-c2ccc(N3CCN(c4ccc(OC[C@H]5CO[C@](Cn6cncn6)(c6ccc(Cl)cc6Cl)O5)cc4)CC3)cc2)n1 (relative stereo) | 1.25 |
| CSc1nc(C)n(-c2ccc(N3CCN(c4ccc(OC[C@H]5CO[C@](Cn6ccnc6)(c6ccc(Cl)cc6Cl)O5)cc4)CC3)cc2)n1 (relative stereo) | 2.5 |
| CSc1nc(C)n(-c2ccc(N3CCN(c4ccc(OC[C@H]5CO[C@](Cn6cncn6)(c6ccc(Cl)cc6Cl)O5)cc4)CC3)cc2)n1 (relative stereo) | ≤ 0.63 |
| CSc1nnc(C)n1-c1ccc(N2CCN(c3ccc(OC[C@H]4CO[C@](Cn5cncn5)(c5ccc(Cl)cc5Cl)O4)cc3)CC2)cc1 (relative stereo) | 2.5 |
| CSc1nncn1-c1ccc(N2CCN(c3ccc(OC[C@H]4CO[C@](Cn5cncn5)(c5ccc(Cl)cc5Cl)O4)cc3)CC2)cc1 (relative stereo) | 2.5 |
| Cc1ncnn1-c1ccc(N2CCN(c3ccc(OC[C@H]4CO[C@](Cn5cncn5)(c5ccc(Cl)cc5Cl)O4)cc3)CC2)cc1 (relative stereo) | 0.63 |
| Cc1nn(C)c(=O)n1-c1ccc(N2CCN(c3ccc(OC[C@H]4CO[C@](Cn5ccnc5)(c5ccc(Cl)cc5Cl)O4)cc3)CC2)cc1 (relative stereo) | 0.63 |
| Cc1nn(C)c(=O)n1-c1ccc(N2CCN(c3ccc(OC[C@H]4CO[C@](Cn5cncn5)(c5ccc(Cl)cc5Cl)O4)cc3)CC2)cc1 (relative stereo) | ≤ 0.63 |
| Clc1ccc([C@@]2(Cn3cncn3)OC[C@H](COc3ccc(N4CCN(c5ccc(-n6cnnn6)cc5)CC4)cc3)O2)c(Cl)c1 (relative stereo) | < 2.5 |
| Cn1ncn(-c2ccc(N3CCN(c4ccc(OC[C@H]5CO[C@](Cn6cncn6)(c6ccc(Cl)cc6Cl)O5)cc4)CC3)cc2)c1=O (relative stereo) | ≥ 0.63 |
| Cn1ncn(-c2ccc(N3CCN(c4ccc(OC[C@H]5CO[C@](Cn6ccnc6)(c6ccc(Cl)cc6Cl)O5)cc4)CC3)cc2)c1=O (relative stereo) | 1 |
| CCn1ncn(-c2ccc(N3CCN(c4ccc(OC[C@H]5CO[C@](Cn6ccnc6)(c6ccc(Cl)cc6Cl)O5)cc4)CC3)cc2)c1=O (relative stereo) | 1.25 |
| CCCn1nc(C)n(-c2ccc(N3CCN(c4ccc(OC[C@H]5CO[C@](Cn6ccnc6)(c6ccc(Cl)cc6Cl)O5)cc4)CC3)cc2)c1=O (relative stereo) | 0.63 |
| CCn1nc(C)n(-c2ccc(N3CCN(c4ccc(OC[C@H]5CO[C@](Cn6cncn6)(c6ccc(Cl)cc6Cl)O5)cc4)CC3)cc2)c1=O (relative stereo) | < 0.63 |
| CCCn1nc(C)n(-c2ccc(N3CCN(c4ccc(OC[C@H]5CO[C@](Cn6cncn6)(c6ccc(Cl)cc6Cl)O5)cc4)CC3)cc2)c1=O (relative stereo) | 0.5 |
| CCn1ncn(-c2ccc(N3CCN(c4ccc(OC[C@H]5CO[C@](Cn6cncn6)(c6ccc(Cl)cc6Cl)O5)cc4)CC3)cc2)c1=O (relative stereo) | ≥ 0.16 |
| CCn1nc(C)n(-c2ccc(N3CCN(c4ccc(OC[C@H]5CO[C@](Cn6ccnc6)(c6ccc(Cl)cc6Cl)O5)cc4)CC3)cc2)c1=O (relative stereo) | 1.25 |
